# Assay results: patent publication US20250282827A1, “LIPIDATED POLYMYXIN ANALOGUES” (priority 2021, published 2025)
# Like-named read-outs stand apart in the source and are kept apart here. Positions of bridges follow the written chain, without caps; N, C: chain ends. Non-standard residues stand in square brackets, D forms with d. Residues, ends and D or L forms follow the SMILES beside them. *: point of attachment. CH2CH2OBz(4-tBu) = CC(C)(C)c1ccc(C(=O)OCC*)cc1; Ethyl(2-propionyloxy) = CCC(=O)OCC*; Ethyl(2-OBz) = O=C(OCC*)c1ccccc1; Lauroyl = CCCCCCCCCCCC(=O)*; hCys = N[C@@H](CCS)C(=O)O; Octanoyl = CCCCCCCC(=O)*; Dab = NCC[C@H](N)C(=O)O; X10 = CCC(C)CC(=O)OCC*; X11 = O=C(OCC*)C1CC1; X9 = CC(C)CC(=O)OCC*
# Assays:
# E. coli ATCC MS8345 = type: cell-based, Escherichia coli
# Description: (§1) All 81 compounds prepared in Examples 2 and 3 underwent screening against a panel of Gram-negative bacterium to assess their ability to inhibit bacterial growth. […] The median value is presented.
# Expansion of the polymyxin macrocycle by substituting […]) offered little advantage in antimicrobial activity but was generally well tolerated although for A. baumanni and P. aeruginosa this was detrimental.
# A. baumannii ATCC 19606 = type: cell-based, Acinetobacter baumannii
# Description: as §1
# E. coli ATCC 25922 = type: cell-based, Escherichia coli
# Description: as §1
# P. aeruginosa ATCC 27853 = type: cell-based, Pseudomonas aeruginosa
# Description: as §1
# [1] = system: K. pneumoniae ATCC MS6671; type: cell-based, Klebsiella pneumoniae
# Description: as §1
# [2] = system: K. pneumoniae ATCC 700603; type: cell-based, Klebsiella pneumoniae
# Description: as §1
# K. pneumoniae ATCC 33495 = type: cell-based, Klebsiella pneumoniae
# Description: as §1
# [3] = colistin-resistant strain, median of triplicate
Compound,MIC E. coli ATCC MS8345 (E. coli ATCC MS8345; ATCC MS8345) [µg/mL],MIC A. baumannii ATCC 19606 (A. baumannii ATCC 19606; ATCC 19606) [µg/mL],MIC E. coli ATCC 25922 (E. coli ATCC 25922; ATCC 25922) [µg/mL],MIC P. aeruginosa ATCC 27853 (P. aeruginosa ATCC 27853; ATCC 27853) [µg/mL],MIC K. pneumoniae ATCC MS6671 ([1]; ATCC MS6671) [µg/mL],MIC K. pneumoniae ATCC 700603 ([2]; ATCC 700603) [µg/mL],MIC K. pneumoniae ATCC 33495 (K. pneumoniae ATCC 33495; ATCC 33495) [µg/mL],MIC E. coli ATCC MS8345 (E. coli ATCC MS8345; [3]) [µg/mL],MIC A. baumannii ATCC 19606 (A. baumannii ATCC 19606; median of triplicate) [µg/mL],MIC E. coli ATCC 25922 (E. coli ATCC 25922; median of triplicate) [µg/mL],MIC P. aeruginosa ATCC 27853 (P. aeruginosa ATCC 27853; median of triplicate) [µg/mL],MIC K. pneumoniae ATCC MS6671 ([1]; median of triplicate) [µg/mL],MIC K. pneumoniae ATCC 700603 ([2]; median of triplicate) [µg/mL],MIC K. pneumoniae ATCC 33495 (K. pneumoniae ATCC 33495; median of triplicate) [µg/mL]
C[C@@H](O)[C@@H]1NC(=O)[C@H](CCN)NC(=O)[C@H](CCN)NC(=O)[C@H](CSCCOC(=O)c2ccc(C(C)(C)C)cc2)NC(=O)[C@@H](Cc2ccccc2)NC(=O)[C@H](CCN)NC(=O)[C@@H](NC(=O)[C@H](CCN)NC(=O)[C@@H](NC(=O)[C@H](CCN)NC(=O)[C@@H](N)CSCCOC(=O)c2ccc(C(C)(C)C)cc2)[C@@H](C)O)CCNC1=O [Compound 40] (H-C(CH2CH2OBz(4-tBu))[Dab]T[Dab][Dab][Dab][dF]C(CH2CH2OBz(4-tBu))[Dab][Dab]T; lactam 5-C),4,2,2 to 4,2,>32,2,2 to 4,,,,,,,
CC(C)CC(=O)OCCSC[C@@H](N)C(=O)N[C@H](C(=O)N[C@@H](CCN)C(=O)N[C@H]1CCNC(=O)[C@H]([C@@H](C)O)NC(=O)[C@H](CCN)NC(=O)[C@H](CCN)NC(=O)[C@H](CC(C)C)NC(=O)[C@@H](Cc2ccccc2)NC(=O)[C@H](CCN)NC1=O)[C@@H](C)O [Compound 96] (H-[dC](X9)T[Dab][Dab][Dab][dF]L[Dab][Dab]T; lactam 4-C),16,4,0.25,1,>32,1,1,,,,,,,
C[C@@H](O)[C@@H]1NC(=O)[C@H](CCN)NC(=O)[C@H](CCN)NC(=O)[C@H](CSCCOC(=O)c2ccccc2)NC(=O)[C@@H](Cc2ccccc2)NC(=O)[C@H](CCN)NC(=O)[C@@H](NC(=O)[C@H](CCN)NC(=O)[C@@H](NC(=O)[C@H](CCN)NC(=O)[C@@H](N)CSCCOC(=O)c2ccc(C(C)(C)C)cc2)[C@@H](C)O)CCNC1=O [Compound 41] (H-C(CH2CH2OBz(4-tBu))[Dab]T[Dab][Dab][Dab][dF]C(Ethyl(2-OBz))[Dab][Dab]T; lactam 5-C),,,,,,,,4,2,1,2,>32,1 to 2,2 to 4
CC(C)C[C@@H]1NC(=O)[C@@H](Cc2ccccc2)NC(=O)[C@H](CCN)NC(=O)[C@@H](NC(=O)[C@H](CCN)NC(=O)[C@@H](NC(=O)[C@H](N)CSCCOC(=O)C2CC2)[C@@H](C)O)CCNC(=O)[C@H]([C@@H](C)O)NC(=O)[C@H](CCN)NC(=O)[C@H](CCN)NC1=O [Compound 100] (H-[dC](X11)T[Dab][Dab][Dab][dF]L[Dab][Dab]T; lactam 4-C),>32,16,4,4,>32,4,2,,,,,,,
CCCCCCCC(=O)N[C@@H](CSCCOC(=O)c1ccccc1)C(=O)N[C@@H](CCN)C(=O)N[C@H](C(=O)N[C@@H](CCN)C(=O)N[C@H]1CCNC(=O)[C@H]([C@@H](C)O)NC(=O)[C@H](CCN)NC(=O)[C@H](CCN)NC(=O)[C@H](CSCCOC(=O)c2ccccc2)NC(=O)[C@@H](Cc2ccccc2)NC(=O)[C@H](CCN)NC1=O)[C@@H](C)O [Compound 51] (Octanoyl-C(Ethyl(2-OBz))[Dab]T[Dab][Dab][Dab][dF]C(Ethyl(2-OBz))[Dab][Dab]T; lactam 5-C),,,,,,,,2 to 4,1 to 2,2,2,>32,2 to 4,2
CCCCCCCCCCCC(=O)N[C@@H](CSCCOC(=O)c1ccccc1)C(=O)N[C@@H](CCN)C(=O)N[C@H](C(=O)N[C@@H](CCN)C(=O)N[C@H]1CCNC(=O)[C@H]([C@@H](C)O)NC(=O)[C@H](CCN)NC(=O)[C@H](CCN)NC(=O)[C@H](CSCCOC(=O)c2ccccc2)NC(=O)[C@@H](Cc2ccccc2)NC(=O)[C@H](CCN)NC1=O)[C@@H](C)O [Compound 52] (Lauroyl-C(Ethyl(2-OBz))[Dab]T[Dab][Dab][Dab][dF]C(Ethyl(2-OBz))[Dab][Dab]T; lactam 5-C),,,,,,,,2 to 4,2 to 4,2 to 4,4,>32,4,2 to 4

# Now from value to compound, other results behind:
MIC E. coli ATCC MS8345 (E. coli ATCC MS8345; ATCC MS8345) [µg/mL],MIC A. baumannii ATCC 19606 (A. baumannii ATCC 19606; ATCC 19606) [µg/mL],MIC E. coli ATCC 25922 (E. coli ATCC 25922; ATCC 25922) [µg/mL],MIC P. aeruginosa ATCC 27853 (P. aeruginosa ATCC 27853; ATCC 27853) [µg/mL],MIC K. pneumoniae ATCC MS6671 ([1]; ATCC MS6671) [µg/mL],MIC K. pneumoniae ATCC 700603 ([2]; ATCC 700603) [µg/mL],MIC K. pneumoniae ATCC 33495 (K. pneumoniae ATCC 33495; ATCC 33495) [µg/mL],Compound,MIC E. coli ATCC MS8345 (E. coli ATCC MS8345; [3]) [µg/mL],MIC A. baumannii ATCC 19606 (A. baumannii ATCC 19606; median of triplicate) [µg/mL],MIC E. coli ATCC 25922 (E. coli ATCC 25922; median of triplicate) [µg/mL],MIC P. aeruginosa ATCC 27853 (P. aeruginosa ATCC 27853; median of triplicate) [µg/mL],MIC K. pneumoniae ATCC MS6671 ([1]; median of triplicate) [µg/mL],MIC K. pneumoniae ATCC 700603 ([2]; median of triplicate) [µg/mL],MIC K. pneumoniae ATCC 33495 (K. pneumoniae ATCC 33495; median of triplicate) [µg/mL]
16,2,0.25,0.5,>32,0.25 to 0.5,0.25,CCC(=O)OCCSCC[C@H](N)C(=O)N[C@@H](CCN)C(=O)N[C@H](C(=O)N[C@@H](CCN)C(=O)N[C@H]1CCNC(=O)[C@H]([C@@H](C)O)NC(=O)[C@H](CCN)NC(=O)[C@H](CCN)NC(=O)[C@H](CC(C)C)NC(=O)[C@@H](Cc2ccccc2)NC(=O)[C@H](CCN)NC1=O)[C@@H](C)O [Compound 60] (H-[hCys](Ethyl(2-propionyloxy))[Dab]T[Dab][Dab][Dab][dF]L[Dab][Dab]T; lactam 5-C),,,,,,,
16,4,1,2,>32,2,1,CCC(C)CC(=O)OCCSC[C@@H](N)C(=O)N[C@H](C(=O)N[C@@H](CCN)C(=O)N[C@H]1CCNC(=O)[C@H]([C@@H](C)O)NC(=O)[C@H](CCN)NC(=O)[C@H](CCN)NC(=O)[C@H](CC(C)C)NC(=O)[C@@H](Cc2ccccc2)NC(=O)[C@H](CCN)NC1=O)[C@@H](C)O (stereo partly drawn) [Compound 97] (H-[dC](X10)T[Dab][Dab][Dab][dF]L[Dab][Dab]T; lactam 4-C),,,,,,,
1,1,1,0.5,>32,1,0.25,CC(C)C[C@@H]1NC(=O)[C@@H](Cc2ccccc2)NC(=O)[C@H](CCN)NC(=O)[C@@H](NC(=O)[C@H](CCN)NC(=O)[C@@H](NC(=O)[C@H](CCN)NC(=O)[C@@H](N)CSCCOC(=O)c2ccc(C(C)(C)C)cc2)[C@@H](C)O)CCNC(=O)[C@H]([C@@H](C)O)NC(=O)[C@H](CCN)NC(=O)[C@H](CCN)NC1=O [Compound 34] (H-C(CH2CH2OBz(4-tBu))[Dab]T[Dab][Dab][Dab][dF]L[Dab][Dab]T; lactam 5-C),,,,,,,
